Test results from the CheMixHub viscosity set.

Assay: xn = mol fraction of the nth substance listed

CCC(=O)CC + CCCCOC(C)=O
viscosity [mPa·s], 101 kPa
Details	x2 = 0.0808	x2 = 0.1652	x2 = 0.2542	x2 = 0.349	x2 = 0.4451	x2 = 0.5459	x2 = 0.65	x2 = 0.7613	x2 = 0.8771
298.15 K	0.478	0.5	0.523	0.543	0.558	0.573	0.59	0.614	0.645
303.15 K	0.445	0.464	0.485	0.5	0.513	0.526	0.541	0.562	0.589
308.15 K	0.419	0.437	0.455	0.471	0.483	0.495	0.509	0.528	0.554
313.15 K	0.395	0.411	0.429	0.441	0.452	0.461	0.474	0.491	0.514

C1CCCC1 + CCCO
101.3 kPa
Details	viscosity [mPa·s]
298.15 K, x1 = 0.0126	1.899
298.15 K, x1 = 0.0784	1.708
298.15 K, x1 = 0.1149	1.602
298.15 K, x1 = 0.1574	1.49
298.15 K, x1 = 0.1979	1.385
298.15 K, x1 = 0.2531	1.254
298.15 K, x1 = 0.289	1.17
298.15 K, x1 = 0.3309	1.085
298.15 K, x1 = 0.3663	1.017
298.15 K, x1 = 0.3847	0.982
298.15 K, x1 = 0.3986	0.959
298.15 K, x1 = 0.4161	0.924
298.15 K, x1 = 0.4387	0.888
298.15 K, x1 = 0.4706	0.839
298.15 K, x1 = 0.4885	0.807
298.15 K, x1 = 0.5064	0.781
298.15 K, x1 = 0.5132	0.772
298.15 K, x1 = 0.5396	0.739
298.15 K, x1 = 0.5459	0.726
298.15 K, x1 = 0.557	0.709
298.15 K, x1 = 0.563	0.703
298.15 K, x1 = 0.5899	0.673
298.15 K, x1 = 0.6188	0.639
298.15 K, x1 = 0.6413	0.615
298.15 K, x1 = 0.6734	0.587
298.15 K, x1 = 0.7116	0.552
298.15 K, x1 = 0.7421	0.529
298.15 K, x1 = 0.7853	0.497
298.15 K, x1 = 0.8171	0.478
298.15 K, x1 = 0.8537	0.458
298.15 K, x1 = 0.9793	0.412
308.15 K, x1 = 0.0566	1.511
308.15 K, x1 = 0.0958	1.374
308.15 K, x1 = 0.1491	1.257
308.15 K, x1 = 0.1968	1.105
308.15 K, x1 = 0.2217	0.997
308.15 K, x1 = 0.2344	0.927
308.15 K, x1 = 0.2399	0.886
308.15 K, x1 = 0.2558	0.874
308.15 K, x1 = 0.2708	0.851
308.15 K, x1 = 0.2943	0.815
308.15 K, x1 = 0.3274	0.772
308.15 K, x1 = 0.3677	0.719
308.15 K, x1 = 0.4171	0.659
308.15 K, x1 = 0.4901	0.582
308.15 K, x1 = 0.5698	0.516
308.15 K, x1 = 0.6573	0.457
308.15 K, x1 = 0.7599	0.415
308.15 K, x1 = 0.8996	0.392
318.15 K, x1 = 0.0747	1.139
318.15 K, x1 = 0.1126	1.074
318.15 K, x1 = 0.2293	0.876
318.15 K, x1 = 0.2845	0.769
318.15 K, x1 = 0.3533	0.654
318.15 K, x1 = 0.4	0.597
318.15 K, x1 = 0.4414	0.539
318.15 K, x1 = 0.4892	0.491
318.15 K, x1 = 0.4949	0.484
318.15 K, x1 = 0.5432	0.445
318.15 K, x1 = 0.5458	0.443
318.15 K, x1 = 0.5813	0.429
318.15 K, x1 = 0.6285	0.412
318.15 K, x1 = 0.6942	0.407
318.15 K, x1 = 0.7867	0.402
318.15 K, x1 = 0.8912	0.393

NCCO + CCCO
viscosity [mPa·s], 101.3 kPa
Details	x1 = 0.0998	x1 = 0.1999	x1 = 0.3005	x1 = 0.4	x1 = 0.5	x1 = 0.6	x1 = 0.7	x1 = 0.8	x1 = 0.9
303.15 K	2.09	2.56	3.17	3.97	4.94	6.22	7.7	9.64	12
313.15 K	1.66	2	2.42	2.97	3.63	4.44	5.41	6.62	8.11
323.15 K	1.35	1.59	1.92	2.3	2.75	3.31	3.93	4.73	5.69

OCc1ccccc1 + CCCO
viscosity [mPa·s], 101 kPa
Details	x1 = 0.0744	x1 = 0.1531	x1 = 0.2366	x1 = 0.3252	x1 = 0.4196	x1 = 0.5203	x1 = 0.6278	x1 = 0.7431	x1 = 0.8668
298.15 K	2.038	2.197	2.401	2.651	2.932	3.25	3.593	3.99	4.433
303.15 K	1.796	1.918	2.083	2.288	2.52	2.783	3.071	3.404	3.776
308.15 K	1.587	1.687	1.828	2.002	2.201	2.429	2.678	2.967	3.292
313.15 K	1.368	1.447	1.562	1.709	1.877	2.07	2.282	2.53	2.807

NCCO + CCO
viscosity [mPa·s], 100 kPa
Details	x1 = 0.1	x1 = 0.2	x1 = 0.3	x1 = 0.4	x1 = 0.5	x1 = 0.6	x1 = 0.7	x1 = 0.8	x1 = 0.9
303.15 K	1.33	1.73	2.3	3.05	–	5.37	7.03	–	11.6
313.15 K	1.11	1.42	1.83	2.34	3.05	3.93	5.03	6.32	7.87
323.15 K	0.967	1.19	1.47	1.85	2.34	2.95	3.7	4.54	5.57
